Experimental data from US20240239861A1, “GLUCAGON-RECEPTOR SELECTIVE POLYPEPTIDES AND METHODS OF USE THEREOF” (i2O Therapeutics, Inc., priority 2016, published 2024).
Where a SMILES comes first, the peptide text is derived from it. [ ]: non-standard residue; d: D form. Aib = CC(C)(N)C(=O)O

Columns and labels:
in vivo = conditions: male, rat
human GLP-1R = human GLP-1R (Homo sapiens, UniProt P43220); experiment: Peptide-receptor mediated cAMP accumulation (LANCE Ultra cAMP) in CHO-K1 cells transfected with human GLP-1R; type: cell-based; conditions: hGLP1 pEC50 (cAMP mean (n = 3): 11 point curve starting at 1 nM, Table 3)
Sequence of human GLP-1R (P43220 24-463): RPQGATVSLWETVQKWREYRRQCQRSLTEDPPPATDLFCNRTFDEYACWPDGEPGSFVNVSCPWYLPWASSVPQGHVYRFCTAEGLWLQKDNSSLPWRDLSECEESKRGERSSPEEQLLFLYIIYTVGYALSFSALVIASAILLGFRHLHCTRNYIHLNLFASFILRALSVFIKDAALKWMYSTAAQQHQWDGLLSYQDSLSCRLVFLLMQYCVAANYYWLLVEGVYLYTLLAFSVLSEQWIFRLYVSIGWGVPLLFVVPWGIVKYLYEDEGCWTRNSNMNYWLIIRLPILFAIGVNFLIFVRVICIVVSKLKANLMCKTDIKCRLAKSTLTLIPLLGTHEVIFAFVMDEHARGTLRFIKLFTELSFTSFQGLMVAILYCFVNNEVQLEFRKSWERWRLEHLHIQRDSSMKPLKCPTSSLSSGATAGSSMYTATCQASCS

Structure (SMILES)	clearance (in vivo)	EC50 (human GLP-1R)
CC(C)C[C@H](NC(=O)[C@H](Cc1ccc(O)cc1)NC(=O)[C@H](CCCCN)NC(=O)[C@H](CO)NC(=O)[C@H](Cc1ccc(O)cc1)NC(=O)[C@H](CC(=O)O)NC(=O)[C@H](CO)NC(=O)[C@@H](NC(=O)[C@H](Cc1ccccc1)NC(=O)[C@@H](NC(=O)CNC(=O)[C@H](Cc1c[nH]cn1)NC(=O)[C@H](CO)NC(=O)[C@@H](N)Cc1ccc(O)cc1)[C@@H](C)O)[C@@H](C)O)C(=O)N[C@@H](CC(=O)O)C(=O)NC(C)(C)C(=O)N[C@@H](CCCCN)C(=O)N[C@@H](CCCNC(=N)N)C(=O)N[C@@H](C)C(=O)N[C@@H](CCC(N)=O)C(=O)N[C@@H](CCC(=O)O)C(=O)N[C@@H](Cc1ccccc1)C(=O)N[C@H](C(=O)NC(C)(C)C(=O)N[C@@H](Cc1c[nH]c2ccccc12)C(=O)N[C@@H](CC(C)C)C(=O)N[C@@H](CCC(=O)O)C(=O)N[C@@H](CC(=O)O)C(=O)N[C@@H](CCC(=O)O)C(=O)N1CCC[C@H]1C(=O)N[C@@H](CO)C(=O)N[C@@H](CO)C(=O)NCC(=O)N[C@@H](CCCCN)C(=O)N1CCC[C@H]1C(=O)N1CCC[C@H]1C(=O)N1CCC[C@H]1C(=O)N[C@@H](CO)C(=O)O)C(C)C [Compound A20] (H-YSHGTFTSDYSKYLD[Aib]KRAQEFV[Aib]WLEDEPSSGKPPPS-OH; N-terminus assumed)	15 mL/min/kg	> 1 nM
CC(C)C[C@H](NC(=O)[C@H](Cc1ccc(O)cc1)NC(=O)[C@H](CCCCN)NC(=O)[C@H](CO)NC(=O)[C@H](Cc1ccc(O)cc1)NC(=O)[C@H](CC(=O)O)NC(=O)[C@H](CO)NC(=O)[C@@H](NC(=O)[C@H](Cc1ccccc1)NC(=O)[C@@H](NC(=O)CNC(=O)[C@H](Cc1c[nH]cn1)NC(=O)[C@H](CO)NC(=O)[C@@H](N)Cc1ccc(O)cc1)[C@@H](C)O)[C@@H](C)O)C(=O)N[C@@H](CC(=O)O)C(=O)NC(C)(C)C(=O)N[C@@H](CCCCN)C(=O)N[C@@H](CCCNC(=N)N)C(=O)N[C@@H](C)C(=O)N[C@@H](CCC(N)=O)C(=O)N[C@@H](CCC(=O)O)C(=O)N[C@@H](Cc1ccccc1)C(=O)N[C@H](C(=O)NC(C)(C)C(=O)N[C@@H](Cc1c[nH]c2ccccc12)C(=O)N[C@@H](CC(C)C)C(=O)N[C@@H](CCC(=O)O)C(=O)N[C@@H](CC(=O)O)C(=O)N[C@@H](CCC(=O)O)C(=O)NCC(=O)N1CCC[C@H]1C(=O)N[C@@H](CO)C(=O)N[C@@H](CO)C(=O)NCC(=O)N[C@@H](C)C(=O)N1CCC[C@H]1C(=O)N1CCC[C@H]1C(=O)N1CCC[C@H]1C(=O)N[C@@H](CO)C(=O)O)C(C)C [Compound A28] (H-YSHGTFTSDYSKYLD[Aib]KRAQEFV[Aib]WLEDEGPSSGAPPPS-OH)	34.7 mL/min/kg	> 1 nM
CC(C)C[C@H](NC(=O)[C@H](Cc1c[nH]c2ccccc12)NC(=O)[C@H](CCCCN)NC(=O)[C@H](CO)NC(=O)[C@H](Cc1ccc(O)cc1)NC(=O)[C@H](CC(=O)O)NC(=O)[C@H](CO)NC(=O)[C@@H](NC(=O)[C@H](Cc1ccccc1)NC(=O)[C@@H](NC(=O)CNC(=O)[C@H](Cc1c[nH]cn1)NC(=O)[C@@H](NC(=O)[C@@H](N)Cc1ccc(O)cc1)[C@@H](C)O)[C@@H](C)O)[C@@H](C)O)C(=O)N[C@@H](CC(=O)O)C(=O)NC(C)(C)C(=O)N[C@@H](C)C(=O)N[C@@H](CCCNC(=N)N)C(=O)N[C@@H](C)C(=O)N[C@@H](CCC(N)=O)C(=O)N[C@@H](CCC(=O)O)C(=O)N[C@@H](Cc1ccccc1)C(=O)N[C@H](C(=O)NC(C)(C)C(=O)N[C@@H](Cc1c[nH]c2ccccc12)C(=O)N[C@@H](CC(C)C)C(=O)N[C@@H](CCC(=O)O)C(=O)N[C@@H](CC(=O)O)C(=O)N[C@@H](CCC(=O)O)C(=O)N1CCC[C@H]1C(=O)N[C@@H](CO)C(=O)N[C@@H](CO)C(=O)NCC(=O)N[C@@H](C)C(=O)N1CCC[C@H]1C(=O)N1CCC[C@H]1C(=O)N1CCC[C@H]1C(=O)N[C@@H](CO)C(=O)O)C(C)C [Compound A35] (H-YTHGTFTSDYSKWLD[Aib]ARAQEFV[Aib]WLEDEPSSGAPPPS-OH; N-terminus assumed)	30.1 mL/min/kg	> 1 nM
CC(C)C[C@H](NC(=O)[C@H](Cc1ccc(O)cc1)NC(=O)[C@H](CCCCN)NC(=O)[C@H](CO)NC(=O)[C@H](Cc1ccc(O)cc1)NC(=O)[C@H](CC(=O)O)NC(=O)[C@H](CO)NC(=O)[C@@H](NC(=O)[C@H](Cc1ccccc1)NC(=O)[C@@H](NC(=O)CNC(=O)[C@H](Cc1c[nH]cn1)NC(=O)[C@H](CO)NC(=O)[C@@H](N)Cc1ccc(O)cc1)[C@@H](C)O)[C@@H](C)O)C(=O)N[C@@H](CC(=O)O)C(=O)NC(C)(C)C(=O)N[C@@H](CCCCN)C(=O)N[C@@H](CCCNC(=N)N)C(=O)N[C@@H](C)C(=O)N[C@@H](CCC(N)=O)C(=O)N[C@@H](CCC(=O)O)C(=O)N[C@@H](Cc1ccccc1)C(=O)N[C@H](C(=O)NC(C)(C)C(=O)N[C@@H](Cc1c[nH]c2ccccc12)C(=O)N[C@@H](CC(C)C)C(=O)N[C@@H](CCC(=O)O)C(=O)N[C@@H](CC(=O)O)C(=O)N[C@@H](CCC(=O)O)C(=O)N[C@@H](CCCCN)C(=O)N[C@@H](CCCNC(=N)N)C(=O)N[C@@H](CC(N)=O)C(=O)N[C@@H](CCCCN)C(=O)N[C@@H](CC(N)=O)C(=O)N1CCC[C@H]1C(=O)N1CCC[C@H]1C(=O)N1CCC[C@H]1C(=O)N[C@@H](CO)C(=O)O)C(C)C [Compound A48] (H-YSHGTFTSDYSKYLD[Aib]KRAQEFV[Aib]WLEDEKRNKNPPPS-OH; N-terminus assumed)	37 mL/min/kg	> 1 nM
CC[C@H](C)[C@H](NC(=O)[C@H](CC(=O)O)NC(=O)[C@H](CC(C)C)NC(=O)[C@H](Cc1ccc(O)cc1)NC(=O)[C@H](CCCCN)NC(=O)[C@H](CO)NC(=O)[C@H](Cc1ccc(O)cc1)NC(=O)[C@H](CC(=O)O)NC(=O)[C@H](CO)NC(=O)[C@@H](NC(=O)[C@H](Cc1ccccc1)NC(=O)[C@@H](NC(=O)CNC(=O)[C@H](Cc1c[nH]cn1)NC(=O)[C@H](CO)NC(=O)[C@@H](N)Cc1ccc(O)cc1)[C@@H](C)O)[C@@H](C)O)C(=O)N[C@@H](CCCCN)C(=O)N[C@@H](CCCNC(=N)N)C(=O)N[C@@H](C)C(=O)N[C@@H](CCC(N)=O)C(=O)N[C@@H](CCC(=O)O)C(=O)N[C@@H](Cc1ccccc1)C(=O)N[C@H](C(=O)NC(C)(C)C(=O)N[C@@H](Cc1c[nH]c2ccccc12)C(=O)N[C@@H](CC(C)C)C(=O)N[C@@H](CCC(=O)O)C(=O)N[C@@H](CC(=O)O)C(=O)N[C@@H](CCC(=O)O)C(=O)N1CCC[C@H]1C(=O)N[C@@H](CO)C(=O)N[C@@H](CO)C(=O)NCC(=O)N[C@@H](C)C(=O)N1CCC[C@H]1C(=O)N1CCC[C@H]1C(=O)N1CCC[C@H]1C(=O)N[C@@H](CO)C(=O)O)C(C)C [Compound A52] (H-YSHGTFTSDYSKYLDIKRAQEFV[Aib]WLEDEPSSGAPPPS-OH)	29 mL/min/kg	> 1 nM
CC(C)C[C@H](NC(=O)[C@H](Cc1ccc(O)cc1)NC(=O)[C@H](CCCCN)NC(=O)[C@H](CO)NC(=O)[C@H](Cc1ccc(O)cc1)NC(=O)[C@H](CC(=O)O)NC(=O)[C@H](CO)NC(=O)[C@@H](NC(=O)[C@H](Cc1ccccc1)NC(=O)[C@@H](NC(=O)CNC(=O)[C@H](Cc1c[nH]cn1)NC(=O)[C@H](CO)NC(=O)[C@@H](N)Cc1ccc(O)cc1)[C@@H](C)O)[C@@H](C)O)C(=O)N[C@@H](CC(=O)O)C(=O)NC(C)(C)C(=O)N[C@@H](CCCCN)C(=O)N[C@@H](CCCNC(=N)N)C(=O)N[C@@H](C)C(=O)N[C@@H](CCC(N)=O)C(=O)N[C@@H](CCC(=O)O)C(=O)N[C@@H](Cc1ccccc1)C(=O)N[C@H](C(=O)NC(C)(C)C(=O)N[C@@H](Cc1c[nH]c2ccccc12)C(=O)N[C@@H](CC(C)C)C(=O)N[C@@H](CCC(=O)O)C(=O)N[C@@H](CC(=O)O)C(=O)N[C@@H](CCC(=O)O)C(=O)N1CCC[C@H]1C(=O)N[C@@H](CO)C(=O)N[C@@H](CO)C(=O)N[C@@H](CCCCN)C(=O)N[C@@H](CCC(=O)O)C(=O)N1CCC[C@H]1C(=O)N1CCC[C@H]1C(=O)N1CCC[C@H]1C(=O)N[C@@H](CO)C(=O)O)C(C)C [Compound A54] (H-YSHGTFTSDYSKYLD[Aib]KRAQEFV[Aib]WLEDEPSSKEPPPS-OH; N-terminus assumed)	24 mL/min/kg	> 1 nM
CC(C)C[C@H](NC(=O)[C@H](Cc1ccc(O)cc1)NC(=O)[C@H](CCCCN)NC(=O)[C@H](CO)NC(=O)[C@H](Cc1ccc(O)cc1)NC(=O)[C@H](CC(=O)O)NC(=O)[C@H](CO)NC(=O)[C@@H](NC(=O)[C@H](Cc1ccccc1)NC(=O)[C@@H](NC(=O)CNC(=O)[C@H](Cc1c[nH]cn1)NC(=O)[C@H](CO)NC(=O)[C@@H](N)Cc1ccc(O)cc1)[C@@H](C)O)[C@@H](C)O)C(=O)N[C@@H](CC(=O)O)C(=O)NC(C)(C)C(=O)N[C@@H](CCCCN)C(=O)N[C@@H](CCCNC(=N)N)C(=O)N[C@@H](C)C(=O)N[C@@H](CCC(N)=O)C(=O)N[C@@H](CCC(=O)O)C(=O)N[C@@H](Cc1ccccc1)C(=O)N[C@H](C(=O)NC(C)(C)C(=O)N[C@@H](Cc1c[nH]c2ccccc12)C(=O)N[C@@H](CC(C)C)C(=O)N[C@@H](CCC(=O)O)C(=O)N[C@@H](CC(=O)O)C(=O)N[C@@H](CCC(=O)O)C(=O)N1CCC[C@H]1C(=O)N[C@@H](CCCCN)C(=O)N[C@@H](CO)C(=O)N[C@@H](CCCCN)C(=O)N[C@@H](C)C(=O)N1CCC[C@H]1C(=O)N1CCC[C@H]1C(=O)N1CCC[C@H]1C(=O)N[C@@H](CO)C(=O)O)C(C)C [Compound A56] (H-YSHGTFTSDYSKYLD[Aib]KRAQEFV[Aib]WLEDEPKSKAPPPS-OH; N-terminus assumed)	39.9 mL/min/kg	> 1 nM
